The text below walks through data of BindingDB's records for doi:10.1016/j.bmcl.2015.01.024 (Arena Pharmaceuticals, 2015).

For orientation: IC50 means the concentration needed to halve the response being measured.

A short description of the experiment: Agonist activity at human IP receptor in human platelets assessed as inhibition of ADP-induced platelet aggregation.
As to `COc1ccc(-c2c(-c3ccccc3)cnn(CC3CCc4c(cccc4OCC(=O)O)C3)c2=O)cc1` (centres undefined), the 50% inhibitory concentration (IC50) is 330 nM.

As for `O=C(O)COc1cccc2c1CCC(Cn1ncc(-c3ccccc3)c(-c3ccc(F)cc3)c1=O)C2` (centres undefined), the IC50 was 230 nM. Consider `COc1cccc(-c2cnn(CC3CCc4c(cccc4OCC(=O)O)C3)c(=O)c2-c2ccccc2)c1F` (centres undefined), for which the IC50 was 64 nM. `O=C(O)COc1cccc2c1CCC(Cn1ncc(-c3cccc(F)c3F)c(-c3ccc(F)cc3)c1=O)C2` (centres undefined): the IC50 was determined as 62 nM. With `O=C(O)COc1cccc2c1CC[C@@H](Cn1ncc(-c3cccc(F)c3F)c(-c3ccc(F)cc3)c1=O)C2`, the IC50 was 62 nM.

For `O=C(O)COc1cccc2c1CCC(Cn1ncc(-c3cccc(F)c3F)c(-c3ccccc3)c1=O)C2` (centres undefined), the half-inhibitory concentration (IC50) came out at 87 nM. `O=C(O)COc1cccc2c1CCC(Cn1ncc(-c3ccccc3)c(-c3ccccc3)c1=O)C2` (centres undefined): the IC50 came to 325 nM.

As for `O=C(O)COc1cccc2c1CCC(Cn1ncc(-c3cccc(F)c3)c(-c3ccccc3)c1=O)C2` (centres undefined), the IC50 was 191 nM. Regarding `O=C(O)COc1cccc2c1CCC(Cn1ncc(-c3ccccc3F)c(-c3ccccc3)c1=O)C2` (centres undefined), the IC50 came out at 220 nM.
